Results on four compounds are retold here after patent publication US20220162240A1, “MITOCHONDRIA-TARGETED ISOKETAL/ISOLEVUGLANDIN SCAVENGERS” (Vanderbilt University, priority 2019, published 2022).

“Also recorded” adds a separate entry of the source.

The test system of assay [1] is intact mouse kidney mitochondria. The assay can be described thus: Swelling and respiration of isolated mouse kidney mitochondria after acute isoLG or isoLG-PE exposure. The settings on record: for mPTP opening / mitochondrial swelling / inhibition of mitochondrial respiration: 1 μM; for inhibition of mitochondrial respiration: acute treatment of isolated mitochondria, 5 min, glutamate and malate, ADP 50 μM. As for the experimental part:
Intact mouse kidney mitochondria with glutamate and malate were incubated (5 min) with ethanol as vehicle, isoLG (1 μM) or isoLG-PE (1 μM) prior to addition of ADP (50 μM) and measurements of oxygen consumption. *P<0.001 vs Control, **P<0.03 vs isoLG.
Reactive isoLG produce protein-Lysine adducts and cytotoxic isoLG-phosphatidylethanolamine adduct (isoLG-PE) which can independently contribute to mitochondrial dysfunction. Indeed, acute treatment of isolated mitochondria with isoLG-PE inhibited respiration by 41% while similar dose of isoLG reduced respiration by 74% which support potential role of both isoLG-PE and isoLG protein-Lysine adducts in mitochondrial dysfunction.

Assay [2] relates to human aortic endothelial cells (HAEC). The assay can be described thus: Mitochondrial superoxide in HAEC incubated with Ang II plus TNFα (MitoSOX/HPLC). In kind it is cell-based. As to the method: (§1) Free radical oxidation of arachidonic acid produces highly reactive isolevuglandins (isoLG) which causes mitochondrial dysfunction by opening of the mitochondrial permeability transition pore (mPTP). […] The functional role of mitochondrial isoLG was tested in vivo using angiotensin II model of hypertension. C57Bl/6J mice were infused with angiotensin II (0.7 mg/kg/day) or saline (Sham) and received mito2HOBA in the drinking water (0.1 g/L). […] Decrease of NO is a hallmark of endothelial dysfunction in hypertension due to vascular oxidative stress.
(§2) Mitochondrial O2^• and cardiolipin oxidation (specific marker of mitochondrial dysfunction and oxidative stress) in cultured human aortic endothelial cells (HAEC) were incubated with Ang II and TNFα.

Assay [3] shares this test system. Kind of assay: Cardiolipin oxidation in HAEC incubated with Ang II plus TNFα (LC/MS). In kind it is cell-based. The settings on record: 50 nM, Ang II + TNFα 24 hours. As to the method: as §1, §2
Another assay has as its system hypertension. The note with it: background statement; cited from earlier work.
The test system of another assay is mitochondrial superoxide. The assay can be described thus: Aortic mitochondrial superoxide (MitoSOX/HPLC) in Ang II-infused mice treated with CypD blocker. The class given is in vivo. The settings on record: i.p. 10 mg/kg/day after onset of Ang II-induced hypertension. As to the method: (§3) FIG. 3A-3D is a set of graphs showing examples of targeting CypD in hypertension. Blood pressure in C57Bl/6J mice infused with saline (Sham), Ang II (0.7 mg/kg/day) or treated with CypD blocker Sanglifehrin A (SFA) after onset of Ang II-induced hypertension (Ang II+SFA). Blood pressure was measured by tail-cuff method (A). ^3Following 14 days of saline or Ang II infusion, mice were sacrificed for isolation of aorta to study mitochondrial […] using MitoSOX and HPLC or to study vasodilation. Results are mean±SEM (n=6-8). *P<0.01 vs Sham, **P<0.01 vs Ang II, ***P<0.01 vs Ang II+SFA (n=8).
(§4) One aspect of the present invention is targeting CypD after onset of hypertension. The present inventors implanted wild-type mice with osmotic pump containing Ang II (0.7 mg/kg/day) and started treatment with Sanglifehrin A after onset of Ang II-induced hypertension (FIG. 3A).

The test system of assay [4] is Ang II-infused C57Bl/6J mice. Kind of assay: Blood pressure (tail-cuff) in Ang II-induced hypertension, CypD blocker given after onset. The settings on record: i.p. 10 mg/kg/day after onset of Ang II-induced hypertension. In kind it is in vivo. As for the experimental part:
as §3, §4

The test system of a further assay is aorta. Kind of assay: Vasodilatation of aorta from Ang II-infused mice treated with CypD blocker. In kind it is in vivo. The note with it: i.p. 10 mg/kg/day after onset of Ang II-induced hypertension. As for the experimental part: as §3, §4
Where [5] appears, read: acute exposure of isolated mitochondria.

Consider isolevuglandins [isoLG], for which, in assay [1] (setting [5]), the “mitochondrial respiration” value was “inhibits mitochondrial respiration” and the “mPTP opening / mitochondrial swelling” value is given as “induces CypD-dependent mPTP opening; also recorded: mitochondrial swelling”. Further, in assay [1], the “inhibition of mitochondrial respiration” value turned out to be 74%.
Regarding `NCc1ccccc1O` [2HOBA, 2-hydroxybenzylamine, reference compound], the “mitochondrial superoxide production / mitochondrial oxidative stress” value in assay [2] (50 nM, Ang II + TNFα 24 hours, MitoSOX/HPLC) is recorded as “not effective”. The “concentration required for protection similar to mito2HOBA (50 nM) against mitochondrial oxidative stress” value in assay [2] (Ang II + TNFα) was “much higher concentrations”. Also, the cardiolipin oxidation result in assay [3] is “not effective”. Moreover, in the assay on hypertension, the “endothelium-dependent relaxation in animal studies” value was “protects endothelium-dependent relaxation”, the “hypertension in animal studies” value was “attenuates hypertension” and the “inflammation in animal studies” value is given as “prevents inflammation”.
With `CC[C@H]1C[C@H](C)[C@@]2(NC1=O)O[C@@H](C[C@H](O)[C@@H](C)CC/C=C/C=C(\C)[C@@H]1C/C=C/C=C/[C@H](O)[C@H](C)[C@@H](O)[C@@H](CCC(C)=O)C(=O)N[C@@H](C(C)C)C(=O)N[C@@H](Cc3cccc(O)c3)C(=O)N3CCC[C@H](N3)C(=O)O1)[C@H](C)[C@H](O)[C@@H]2C` [Sanglifehrin A], the “mitochondrial superoxide production in aorta” value in the assay on mitochondrial superoxide was “normalizes”. Moreover, the blood pressure entry in assay [4] is on record as “reduces blood pressure”. For the same compound, in the assay with aorta, the vasodilatation entry is recorded as “improves vasodilatation”.
Take “isoLG-phosphatidylethanolamine adduct [isoLG-PE]”: in assay [1] (setting [5]), the “mPTP opening / mitochondrial swelling” value is recorded as “mitochondrial swelling”. Moreover, the “inhibition of mitochondrial respiration” value in assay [1] worked out at 41%.
